What was measured:
[1] = test system: B16F10 cutaneous cancer cells; test: Viability of mice implanted intraperitoneally with B16F10 cells, co-administration with chemotherapeutics, 60 days; format: in vivo, mouse; details: for Proportion (%): untreated = 100
From the text: (§1) A homogeneous plantation test system of B 16F 10 cutaneous cancer cell was utilized for the measurement of the anticancer activity upon co-administration of the polysaccharide substance and adriamycin. The cutaneous cancer cells were implanted in the peritoneal cavity of mice. Adriamycin was peritoneally administered to the mice for 12 days after tumor implantation while the polysaccharide substance was peritoneally administered from a week before the implantation to 12 days after the implantation. For 60 days, the viability of the mice was recorded everyday. Adriamycin was used at such low amounts as not to damage the mice.
The cutaneous cancer cells were implanted in the peritoneal cavity of mice. […] For 60 days, the viability of the mice was recorded everyday. Mitomycin C was used at such low amounts as not to damage the mice.
The cutaneous cancer cells were implanted in the peritoneal cavity of mice. […] For 60 days, the viability of the mice was recorded everyday. Cisplastin was used at such low amounts as not to damage the mice.
as §1, with “B16F10” for “B 16F 10”, “5-fluoro uracil, as in the above experiments.” for “adriamycin.”, “5-fluoro uracil” for “Adriamycin”

[2] = test system: B16F10 cutaneous cancer cells; test: Lung metastasis after tail-vein implantation of B16F10 cells, spots counted on the 14th day; format: in vivo, C57BL/6 mice
From the text: In order to test the polysaccharide substance for the prevention of cancer metastasis, B16F10 cutaneous cancer cells were implanted in the tail veins of C57BL/6 mice. On the 14th day after implantation, the lungs were isolated from the mice to investigate whether or to what extent cancer metastasis occurred. Adriamycin was peritoneally administered to the mice for 12 days after tumor implantation while the polysaccharide substance was peritoneally administered from a week before the implantation to 12 days after the implantation. […]

[3] = test system: NCl-H23 human lung cancer cells; test: Direct cytotoxicity, sulforhodamin B method
[4] = test system: NCl-H23 lung cancer cells; test: Human lung cancer cells implanted subcutaneously in nude mice, tumor size and weight; format: in vivo
Method: The activity of the polysaccharide substance against human cancer was assayed using NCl-H23, a lung cancer cell line. Nude mice were subcutaneously implanted with NCl-H23 lung cancer cells. The polysaccharide substance and adriamycin were peritoneally administered to the nude mice for 12 days after cancer cell implantation. […] Because the nude mice were devoid of T-cells, their immunological competency was generally attributed to the activity of natural killer cells or macrophage cells. Therefore, the immunological enhancement obtained when administering the polysaccharide substance was meditated through these two type cells.

[5] = test system: B16F10 mouse cutaneous cancer cells; test: Direct cytotoxicity, sulforhodamin B method
[6] = 0.3 µg/mL, 2nd day after treatment

COc1cccc2c1C(=O)c1c(O)c3c(c(O)c1C2=O)C[C@@](O)(C(=O)CO)C[C@@H]3O[C@H]1C[C@H](N)[C@H](O)[C@H](C)O1 [Adriamycin]
Avg. Viability ([1]; adriamycin 0.1 mg/kg alone): 35.4 days | Nos. of viable mice on the 60th day ([1]; adriamycin 0.1 mg/kg alone): 0/10 | Proportion (%) ([1]; adriamycin 0.1 mg/kg alone): 195.6% | Avg. Viability ([1]; adriamycin 0.3 mg/kg alone): 40.1 days | Nos. of viable mice on the 60th day ([1]; adriamycin 0.3 mg/kg alone): 2/10 | Proportion (%) ([1]; adriamycin 0.3 mg/kg alone): 240.9% | Nos. of Spots ([2]; adriamycin 1mg/kg alone): 197 | Nos. of Spots ([2]; adriamycin 3mg/kg alone): 172 | cell quantity (untreated = 100 %) [3, 6]: 100% | cell quantity (untreated = 100 %) ([3]; 1 µg/mL, 2nd day): 71% | cell quantity (untreated = 100 %) ([3]; 3 µg/mL, 2nd day): 39% | cell quantity (untreated = 100 %) ([3]; 10 µg/mL, 2nd day): 7% | cell quantity (untreated = 100 %) ([3]; 30 µg/mL, 2nd day): -1% | cytotoxicity to cancer cells ([3]; overall statement): potent cytotoxicity | Cell size ([4]; 14th day, 1mg/kg peritoneally for 12 days): 12 mm^3 | Cell size ([4]; 17th day, 1mg/kg): 27 mm^3 | Cell size ([4]; 18th day, 1mg/kg): 34 mm^3 | Cell size ([4]; 19th day, 1mg/kg): 33 mm^3 | Final Cancer Weight ([4]; 19th day, 1mg/kg): 95 | cell quantity (untreated = 100 %) [5, 6]: 56% | cell quantity (untreated = 100 %) ([5]; 1 µg/mL, 2nd day): 29% | cell quantity (untreated = 100 %) ([5]; 3 µg/mL, 2nd day): 9% | cell quantity (untreated = 100 %) ([5]; 10 µg/mL, 2nd day): -10% | cell quantity (untreated = 100 %) ([5]; 30 µg/mL, 2nd day): -10% | cytotoxicity to cancer cells ([5]; overall statement): potent cytotoxicity

O=c1[nH]cc(F)c(=O)[nH]1 [5-FU, 5-fluoro uracil]
Avg. Viability ([1]; 5-fluorouracil 1 mg/kg alone): 33.0 days | Nos. of viable mice on the 60th day ([1]; 5-fluorouracil 1 mg/kg alone): 0/10 | Avg. Viability ([1]; 5-fluorouracil 1 mg/kg alone, listed as 5-Fluorouracil): 34.2 days | Proportion (%) ([1]; 5-fluorouracil 1 mg/kg alone): 187.8% | Avg. Viability ([1]; 5-fluorouracil 3 mg/kg alone): 40.5 days | Nos. of viable mice on the 60th day ([1]; 5-fluorouracil 3 mg/kg alone): 2/10 | Avg. Viability ([1]; 5-fluorouracil 3 mg/kg alone, listed as 5-fluorouracil): 40.2 days | Proportion (%) ([1]; 5-fluorouracil 3 mg/kg alone): 222%

CO[C@@]12[C@H](COC(N)=O)C3=C(C(=O)C(C)=C(N)C3=O)N1C[C@@H]1N[C@@H]12 [M.C, Mitomycin C]
Nos. of viable mice on the 60th day ([1]; mitomycin C 0.2 mg/kg alone): 0/10 | Avg. Viability ([1]; mitomycin C 0.6 mg/kg alone): 38.0 days | Nos. of viable mice on the 60th day ([1]; mitomycin C 0.6 mg/kg alone): 1/10

N.N.[Cl][Pt][Cl] [C.P, Cisplatin]
Avg. Viability ([1]; cisplatin 0.5 mg/kg alone): 33.0 days | Nos. of viable mice on the 60th day ([1]; cisplatin 0.5 mg/kg alone): 0/10 | Avg. Viability ([1]; cisplatin 0.5 mg/kg alone, listed as Cisplatin): 33 days | Proportion (%) ([1]; cisplatin 0.5 mg/kg alone): 182.3% | Avg. Viability ([1]; cisplatin 1.5 mg/kg alone): 40.5 days | Nos. of viable mice on the 60th day ([1]; cisplatin 1.5 mg/kg alone): 2/10 | Proportion (%) ([1]; cisplatin 1.5 mg/kg alone): 223.8%
